What was measured:
Assay type in all cases: biochemical
human EGFR (WT) = target: T1, human EGFR (WT) (Homo sapiens, UniProt P00533); assay: Inhibitory activity against EGFR (WT) kinase
T1 construct: purchased Carna Biosciences Inc., Japan
Method: The compounds of the present invention were measured for their inhibitory activity nainst EGFR (WT) kinase activity.
The materials, measurement procedures and data analysis method used in this test. are substantially the same as those shown in the section “Measurement of inhibitory activity against EGFR (d746-750/T790M/C797S) kinase.” However, among the materials, the kinase protein used was a purified recombinant human EGFR (WT) purchased from Carna Biosciences Inc., Japan. In the measurement procedures, the final concentration of ATP was set to 1.5 μM. Finally, data analysis was conducted to determine the IC50 value (nM) of each compound against EGFR (WT).
In accordance with the same procedures as shown in 5) in Test Example 1, the compounds of the present invention were measured for their inhibitory activity against. EGFR (WT) kinase activity.

[1] = target: T2, human EGFR (d746-750/C797S) (Homo sapiens, UniProt P00533, C797S/DEL746-750); assay: Inhibitory activity against EGFR (d746-750/C797S) kinase
T2 construct: purchased SignalChem
T2 sequence (P00533 with tags, fused parts or gaps DEL746-750/C797S): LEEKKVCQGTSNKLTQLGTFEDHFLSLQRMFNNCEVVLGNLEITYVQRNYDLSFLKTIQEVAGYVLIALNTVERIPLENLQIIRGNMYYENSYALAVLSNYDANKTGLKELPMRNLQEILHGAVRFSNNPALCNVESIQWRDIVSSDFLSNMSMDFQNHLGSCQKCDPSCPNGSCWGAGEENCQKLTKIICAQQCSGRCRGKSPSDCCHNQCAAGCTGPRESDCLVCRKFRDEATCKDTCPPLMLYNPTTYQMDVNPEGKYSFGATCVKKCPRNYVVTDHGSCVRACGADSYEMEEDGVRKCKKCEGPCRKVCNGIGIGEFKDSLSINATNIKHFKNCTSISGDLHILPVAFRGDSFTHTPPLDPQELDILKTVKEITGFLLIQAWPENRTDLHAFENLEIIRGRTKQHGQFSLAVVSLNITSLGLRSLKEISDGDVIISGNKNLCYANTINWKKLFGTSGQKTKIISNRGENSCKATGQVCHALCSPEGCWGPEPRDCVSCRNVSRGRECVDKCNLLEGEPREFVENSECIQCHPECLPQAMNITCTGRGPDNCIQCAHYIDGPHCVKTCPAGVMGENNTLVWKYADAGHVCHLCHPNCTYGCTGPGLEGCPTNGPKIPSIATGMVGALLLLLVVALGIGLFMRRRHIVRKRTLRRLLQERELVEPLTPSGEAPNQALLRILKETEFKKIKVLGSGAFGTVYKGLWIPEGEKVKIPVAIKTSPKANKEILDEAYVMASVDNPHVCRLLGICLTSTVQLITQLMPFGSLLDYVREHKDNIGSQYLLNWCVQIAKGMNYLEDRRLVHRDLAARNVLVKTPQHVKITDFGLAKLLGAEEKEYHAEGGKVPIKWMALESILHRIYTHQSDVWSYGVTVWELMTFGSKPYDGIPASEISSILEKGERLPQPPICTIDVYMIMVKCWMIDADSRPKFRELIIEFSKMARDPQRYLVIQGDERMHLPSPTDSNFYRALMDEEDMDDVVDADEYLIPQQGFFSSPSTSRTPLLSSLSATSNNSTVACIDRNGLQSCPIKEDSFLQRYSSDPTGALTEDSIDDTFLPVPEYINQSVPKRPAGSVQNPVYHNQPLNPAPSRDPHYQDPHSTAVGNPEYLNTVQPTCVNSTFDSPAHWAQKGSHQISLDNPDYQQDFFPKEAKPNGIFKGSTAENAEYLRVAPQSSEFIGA
Method: 3) Measurement of inhibitory activity against EGFR (d746-750/C797S) kinase
The compounds of the present invention were measured for their inhibitory activity against EGFR (d746-750/C797S) kinase activity.
The materials, measurement procedures and data analysis method used in this test are substantially the same as those shown in the section “Measurement of inhibitory activity aiainst EGFR (d746-750/T790M/C797S) kinase.” However, among the materials, the kinase protein used was a purified recombinant human EGFR (d746-750/C797S) protein purchased from SignalChem, while the kinase reaction buffer used was 13.5 mM Tris (pH 7.5) containing 2 mM dithiothreitol and 0.009% Tween-20. In the measurement procedures, the final concentration of ATP was set to 14 μM, the final concentration of maganesium chloride was set to 20 mM, the final concentration of manganese chloride was set to 12.5 mM, the incubation time for kinase reaction was set to 60 minutes, and the final concentration of EDTA used to stop the kinase reaction was set to 40 mM. Finally, data analysis was conducted to determine to IC50 value (nM) of each compound against EGFR (d746-750/C797S).
In accordance with the same procedures as shown in 3) in Test Example 1, the compounds of the present invention were measured for their inhibitory activity against EGFR (d746-750/C797S) kinase activity.

[2] = target: T3, human EGFR (d746-750/T790M/C797S) (Homo sapiens, UniProt P00533, C797S/DEL746-750/T790M); assay: Inhibitory activity against EGFR (d746-750/T790M/C797S) kinase
T3 construct: made in house; host or cells: Sf9 insect cells, baculovirus
T3 sequence (P00533 with tags, fused parts or gaps DEL746-750/T790M/C797S): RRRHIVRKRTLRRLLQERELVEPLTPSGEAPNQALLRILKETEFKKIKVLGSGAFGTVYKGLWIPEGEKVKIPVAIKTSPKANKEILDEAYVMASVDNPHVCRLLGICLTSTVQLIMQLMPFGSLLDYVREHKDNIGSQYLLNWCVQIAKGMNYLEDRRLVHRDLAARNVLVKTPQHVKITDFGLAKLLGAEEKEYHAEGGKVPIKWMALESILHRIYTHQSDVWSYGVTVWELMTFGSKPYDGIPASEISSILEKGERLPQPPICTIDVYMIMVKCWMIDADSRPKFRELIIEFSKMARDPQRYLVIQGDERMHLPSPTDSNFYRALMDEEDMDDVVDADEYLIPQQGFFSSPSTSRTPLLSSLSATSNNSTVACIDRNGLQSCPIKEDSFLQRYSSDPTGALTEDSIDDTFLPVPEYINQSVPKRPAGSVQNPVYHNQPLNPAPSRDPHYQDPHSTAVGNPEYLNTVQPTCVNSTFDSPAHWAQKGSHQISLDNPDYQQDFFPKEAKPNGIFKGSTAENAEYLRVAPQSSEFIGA
Method: 1) Measurement of inhibitory activity against EGFR (d746-750/T790M/C797S) kinase
The compounds of the above examples and comparative examples were measured for their inhibitory activity against EGFR (d746-750/T790M/C797S) kinase activity. Among the materials required for measurement of this inhibitory activity, the kinase protein (SEQ ID NO: 1) used was prepared as follows: the cytoplasmic domain of human EGFR (d746-750/T790M/C797S) fused at the ammo terminal end with a glutathione-S-transferase (GST) tag was expressed M insect cells (Sf9) by the baculovirus expression system and then purified an a glutathione sepharose column. For use as a substrate peptide, a peptide biotinylated at the N-terminal end (biotin -EEPLYWSFPAKKK) was synthesized by reference to Perkin Elmer LabChip® series reagent FL-Peptide 22.
Procedures for measurement of the inhibitory activity are as follows. First, the compounds of the present invention were each dissolved in dimethyl sulfoxide (DMSO), and their serial dilutions were then prepared with DMSO. Secondly, each compound serial dilution (final concentration of DMSO during kinase reaction: 2.5%) or DMSO (final concentration: 2.5%) was mixed with a solution containing the substrate peptide (final concentration: 250 nM), magnesium chloride (final concentration: 10 mM), manganese chloride (final concentration: 10 mM) and ATP (final concentration: 6 μM) in a kinase reaction buffer (Carna Biosciences Inc., Japan), and the EGFR (d746-750/T790M/C797S) protein was further added thereto, followed by incubation at 25° C. for 120 minutes to cause kinase reaction. To the reaction solution, EDTA was added to give a final concentration of 24 mM to thereby stop the reaction, followed by addition of a phospholylated tyrosine detection solution containing europium-labeled anti-phosphorylated tyrosine antibody PT66 (Perkin Elmer) and SureLight APC-SA (Perkin Elmer). The reaction solution was allowed to stand at room temperature for 2 hours or longer. As a background, DMSO was used instead of each compound solution in .DMSO, and EDIA was added prior to the addition of the EGFR EGFR (d746-750/T790M/C797S) protein, followed by incubation at 25° C. for 120 minutes. The same detection solution was also added to this reaction solution, which was then allowed to stand for 2 hours or longer. Finally, all the test samples were measured with a PHERAstar FS reader (BMG LABTECH) for their fluorescence intensity at two wavelengths of 620 nm and 665 nm upon irradiation with an excitation light of 337 nm wavelength, and the ratio of fluorescence intensities at these two wavelengths was obtained as data for each compound.
Moreover, as control compounds, the above Comparative Example A (Example 3 in WO2013/118817) and Comparative Example B (Example 35 in WO2013/118817) known to have EGFR inhibitory activity were used.
In accordance with the same procedures as shown in 1) in Test Example 1, the compounds of the above examples were measured for their inhibitory activity against EGFR (d746-750/T790M/C797S) kinase activity.

human EGFR (L858R/C797S) = target: T4, human EGFR (L858R/C797S) (Homo sapiens, UniProt P00533, C797S/L858R); assay: Inhibitory activity against EGFR (L858R/C797S) kinase; details: Test Example 1, Table 5; ATP 4 μM, 90 minutes
T4 construct: purchased SignalChem
T4 sequence (P00533 25-1210 C797S/L858R): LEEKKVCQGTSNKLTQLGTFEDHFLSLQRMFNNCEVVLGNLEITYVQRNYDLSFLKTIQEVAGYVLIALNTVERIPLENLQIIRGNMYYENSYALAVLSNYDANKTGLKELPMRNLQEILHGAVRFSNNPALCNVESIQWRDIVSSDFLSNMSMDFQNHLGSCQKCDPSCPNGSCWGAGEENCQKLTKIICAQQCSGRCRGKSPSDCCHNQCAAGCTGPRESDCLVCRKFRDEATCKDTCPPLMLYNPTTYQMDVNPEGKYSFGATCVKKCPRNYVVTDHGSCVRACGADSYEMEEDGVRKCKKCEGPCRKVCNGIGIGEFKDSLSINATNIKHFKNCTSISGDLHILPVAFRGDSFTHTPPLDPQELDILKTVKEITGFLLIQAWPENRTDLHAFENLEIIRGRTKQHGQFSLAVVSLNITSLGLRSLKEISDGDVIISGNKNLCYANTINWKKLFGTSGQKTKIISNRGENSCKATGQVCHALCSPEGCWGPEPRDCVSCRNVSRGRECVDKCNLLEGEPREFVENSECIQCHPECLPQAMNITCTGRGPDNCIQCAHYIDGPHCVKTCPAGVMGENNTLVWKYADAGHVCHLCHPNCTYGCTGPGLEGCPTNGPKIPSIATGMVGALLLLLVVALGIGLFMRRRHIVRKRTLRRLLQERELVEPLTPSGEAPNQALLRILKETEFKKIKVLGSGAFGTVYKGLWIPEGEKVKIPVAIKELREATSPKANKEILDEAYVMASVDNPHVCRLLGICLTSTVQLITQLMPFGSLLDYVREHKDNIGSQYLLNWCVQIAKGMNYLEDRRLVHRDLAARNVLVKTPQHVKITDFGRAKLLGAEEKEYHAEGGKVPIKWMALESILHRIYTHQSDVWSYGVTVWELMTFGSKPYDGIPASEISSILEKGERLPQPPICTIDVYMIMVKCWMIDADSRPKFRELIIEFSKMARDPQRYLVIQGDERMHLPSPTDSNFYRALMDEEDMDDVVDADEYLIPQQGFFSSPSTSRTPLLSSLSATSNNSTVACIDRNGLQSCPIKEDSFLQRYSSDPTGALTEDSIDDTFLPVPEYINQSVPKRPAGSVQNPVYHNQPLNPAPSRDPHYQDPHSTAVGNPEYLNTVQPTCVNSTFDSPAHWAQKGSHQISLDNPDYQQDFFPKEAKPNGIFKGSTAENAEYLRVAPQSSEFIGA
Method: 4) Measurement of inhibitory activity against EGFR (L858R/C797S) kinase
The compounds of the present invention were measured for their inhibitory activity aeainst EGFR (L858R/C797S) kinase activity.
The materials, measurement procedures and data analysis method used in this test are stibstantially the same as those shown in the section “Measurement of inhibitory activity against EGFR (d746-750/C797S) kinase.” However, among the materials, the kinase protein used was a purified recombinant human EGFR (C797S/L858R) protein purchased from SignalChem. In the measurement procedures, the final concentration of ATP was set to 4 μM, and the incubation time for kinase reaction was set to 90 minutes. Finally, data analysis was conducted determine the IC50 value (nM) of each compound against EGFR (L858R/C797S).
In accordance with the same procedures as shown in 4) in Test Example 1, the compounds of the present invention were measured for their inhibitor activity against. EGFR (L858R/C797S) kinase activity.

[3] = target: T5, human EGFR (L858R/T790M/C797S) (Homo sapiens, UniProt P00533, C797S/L858R/T790M); assay: Inhibitory activity against EGFR (L858R/T790M/C797S) kinase; details: Test Example 3, Table 9; same procedures as 2) in Test Example 1
T5 construct: made in house; host or cells: Sf9 insect cells, baculovirus
T5 sequence (P00533 with tags, fused parts or gaps T790M/C797S/L858R): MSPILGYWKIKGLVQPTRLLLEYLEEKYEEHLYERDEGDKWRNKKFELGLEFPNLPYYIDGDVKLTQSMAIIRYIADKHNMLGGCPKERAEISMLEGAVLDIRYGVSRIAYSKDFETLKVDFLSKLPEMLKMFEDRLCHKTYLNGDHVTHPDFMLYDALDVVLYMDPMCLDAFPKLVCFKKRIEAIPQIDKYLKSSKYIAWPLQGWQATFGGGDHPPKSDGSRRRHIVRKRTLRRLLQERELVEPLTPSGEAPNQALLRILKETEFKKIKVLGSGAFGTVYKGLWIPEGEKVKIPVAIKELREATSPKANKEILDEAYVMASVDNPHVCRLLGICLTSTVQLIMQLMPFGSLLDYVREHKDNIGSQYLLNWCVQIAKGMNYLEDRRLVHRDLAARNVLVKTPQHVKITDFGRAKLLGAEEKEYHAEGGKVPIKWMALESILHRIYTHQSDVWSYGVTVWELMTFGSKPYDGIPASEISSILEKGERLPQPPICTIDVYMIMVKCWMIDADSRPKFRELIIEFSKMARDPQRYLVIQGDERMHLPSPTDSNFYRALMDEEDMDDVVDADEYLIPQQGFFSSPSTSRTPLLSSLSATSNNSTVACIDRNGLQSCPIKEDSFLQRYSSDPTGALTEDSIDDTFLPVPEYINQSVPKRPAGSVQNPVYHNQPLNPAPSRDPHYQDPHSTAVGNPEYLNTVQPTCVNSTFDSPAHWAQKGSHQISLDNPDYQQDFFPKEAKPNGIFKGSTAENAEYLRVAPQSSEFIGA
Method: 2) Measurement of inhibitory activity against EGFR (L858R/T790M/C797S) kinase
The compounds of the presein invention were measured for their inhibitory activity against EGFR (L858R/T790M/C797S) kinase activity.
The materials, measurement procedures and data analysis method used in this test are substantially the same as those shown in the section “Measurement of inhibitory activity against EGFR (d746-750/T790M/C797S) kinase.” However, among the materials, the kinase protein (SEQ ID NO: 2) used was prepared as follows: the cytoplasmic domain of human EGFR (L858R/T790M/C797S) fused at the amino terminal end with a GST tag was expressed in insect cells (Sf9) by the baculovirus expression system and then purified on a glutathione sepharose column. In the measurement procedures, the final concentration of ATP was set to 0.5 μM. Finally, data analysis was conducted to determine the IC50 value (nM) of each compound against EGFR (L858R/T790M/C797S).
In accordance with the same procedures as shown in 2) in Test Example 1, the compounds of the present invention were measured for their inhibitory activity against EGFR (L858R/T790M/C797S) kinase activity.

[4] = Test Example 1, Table 6, ATP 1.5 μM
[5] = Test Example 1, Table 4, ATP 14 μM, 60 minutes
[6] = Test Example 1, Table 2, ATP 6 μM, 25° C., 120 minutes

T1 sequence (P00533 25-1210): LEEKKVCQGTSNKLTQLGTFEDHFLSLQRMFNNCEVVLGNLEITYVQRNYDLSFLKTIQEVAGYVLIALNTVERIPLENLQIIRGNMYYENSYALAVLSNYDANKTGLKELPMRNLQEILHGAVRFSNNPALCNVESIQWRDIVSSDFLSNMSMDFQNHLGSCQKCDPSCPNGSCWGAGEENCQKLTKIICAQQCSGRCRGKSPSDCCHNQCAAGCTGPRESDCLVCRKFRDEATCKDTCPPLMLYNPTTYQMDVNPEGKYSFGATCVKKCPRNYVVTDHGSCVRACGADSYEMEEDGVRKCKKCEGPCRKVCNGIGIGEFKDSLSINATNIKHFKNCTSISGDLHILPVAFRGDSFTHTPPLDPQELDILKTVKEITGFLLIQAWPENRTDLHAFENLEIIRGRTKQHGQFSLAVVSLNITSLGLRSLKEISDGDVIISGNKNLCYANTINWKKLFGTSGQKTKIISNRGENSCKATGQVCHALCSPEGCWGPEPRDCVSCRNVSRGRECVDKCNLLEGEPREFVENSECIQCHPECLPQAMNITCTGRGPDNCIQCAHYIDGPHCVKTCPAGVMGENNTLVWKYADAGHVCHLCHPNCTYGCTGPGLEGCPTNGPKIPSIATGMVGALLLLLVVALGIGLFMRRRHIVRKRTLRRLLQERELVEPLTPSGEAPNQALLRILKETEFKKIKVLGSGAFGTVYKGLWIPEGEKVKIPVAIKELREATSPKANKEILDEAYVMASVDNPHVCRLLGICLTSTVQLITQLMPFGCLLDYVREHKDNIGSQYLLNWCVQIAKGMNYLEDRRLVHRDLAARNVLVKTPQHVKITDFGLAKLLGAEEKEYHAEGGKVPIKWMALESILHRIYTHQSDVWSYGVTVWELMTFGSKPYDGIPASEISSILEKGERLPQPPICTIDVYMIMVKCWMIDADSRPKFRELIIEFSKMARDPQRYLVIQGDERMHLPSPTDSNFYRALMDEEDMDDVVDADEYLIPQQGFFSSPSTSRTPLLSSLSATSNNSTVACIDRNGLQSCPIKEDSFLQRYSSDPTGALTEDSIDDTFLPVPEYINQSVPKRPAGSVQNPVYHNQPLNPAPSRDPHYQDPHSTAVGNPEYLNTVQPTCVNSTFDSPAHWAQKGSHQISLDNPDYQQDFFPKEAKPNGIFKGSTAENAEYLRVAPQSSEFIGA

Row | Compound | IC50 (human EGFR (WT); [4]) [nM] | IC50 [1, 5] [nM] | IC50 [2, 6] [nM] | IC50 (human EGFR (L858R/C797S)) [nM] | IC50 (human EGFR (WT); Test Example 3, Table 12; same procedures as 5) in Test Example 1) [nM] | IC50 ([1]; Test Example 3, Table 10; same procedures as 3) in Test Example 1) [nM] | IC50 ([2]; Test Example 3, Table 8; same procedures as 1) in Test Example 1) [nM] | IC50 [3] [nM]
1 | C#Cc1c(-c2cnc3ccccc3c2)c2c(N)ncnc2n1C12CCC(N3CCN(C)C(=O)C3)(CC1)C2 [Example 5, 4-(4-(4-Amino-6-ethynyl-5-(quinolin-3-yl)-7H-pyrrolo[2,3-d]pyrimidin-7-yl)bicyclo-[2.2.1]heptan-1-yl)-1-methylpiperazin-2-one] | 4 | 1.2 | 0.32 | 2.8 |  |  |  | 
2 | C#Cc1c(-c2cnc3ccccc3c2)c2c(N)ncnc2n1C12CCC(O)(CC1)CC2 [Example 7, 4-(4-Amino-6-ethynyl-5-(quinoiln-3-yl)-7H-pyrrolo[2,3-d]pyrimidin-7-yl)bicyclo-[2.2.2]octan-1-ol] | 2.5 | 2.3 | 0.8 | 2.9 |  |  |  | 
3 | C#Cc1c(-c2cnc3ccccc3c2)c2c(N)ncnc2n1C12CCC(NCc3cccnc3)(CC1)CC2 [Example 8, 6-Ethynyl-7-(4-((pyridin-3-ylmethyl)amino)bicyclo[2.2.2]octan-1-yl)-5-(quinolin-3-yl) -7H-pyrrolo[2,3-d]pyrimidine-4-amine] | 3.2 | 0.73 | < 0.3 | 1.4 |  |  |  | 
4 | C#Cc1c(-c2cnc3ccccc3c2)c2c(N)ncnc2n1C12CCC(NC(=O)n3cccn3)(CC1)C2 [Example 21, N-(4-(4-Amino-6-ethynyl-5-(quinolin-3-yl)-7H-pyrrolo[2,3-d]pyrimidin-7-yl)bicyclo-[2.2.1]heptan-1-yl)-1H-pyrazole-1-carboxamide] | 1.7 | 0.78 | < 0.3 | 0.98 |  |  |  | 
5 | C#Cc1c(-c2cnc3ccccc3c2)c2c(N)ncnc2n1C12CCC(NC(=O)c3cnc(N(C)C)cn3)(CC1)C2 [Example 32, N-(4-(4-Amino-6-ethynyl-5-(quinolin-3-yl)-7H-pyrrolo[2,3-d]pyrimidin-7-yl)bicyclo-[2.2.1]heptan-1-yl)-5-(dimethylamino)pyrazine-2-carboxamide] | 1 | 0.59 | < 0.3 | 0.78 |  |  |  | 
6 | CC#Cc1c(-c2cnc3ccccc3c2)c2c(N)ncnc2n1C12CCC(NC(=O)c3ccnn3C)(CC1)C2 [Example 33, N-(4-(4-Amino-6-(propyn-1-yl)-5-(quinolin-3-yl)-7H-pyrrolo[2,3-d]pyrimidin-7-yl) -bicyclo[2.2.1]heptan-1-yl)-1-methyl-1H-pyrazole-5-carboxamide] | 1.9 | 1.9 | < 0.3 | 2.3 |  |  |  | 
7 | C#Cc1c(-c2cnc3ccccc3c2)c2c(N)ncnc2n1C12CCC(CN(C)C)(CC1)C2 [Example 40, 7-(4-((Dimethylamino)methyl)bicyclo[2.2.1]heptan-1-yl)-6-ethynyl-5-(quinolin-3-yl) -7H-pyrrolo[2,3-d]pyrimidine-4-amine] | 5 | 2.6 | < 0.3 | 4 |  |  |  | 
8 | C#Cc1c(-c2cnc3ccccc3c2)c2c(N)ncnc2n1C12CCC(CNCCF)(CC1)C2 [Example 54, 6-Ethynyl-7-(4-(((2-fluoroethyl)amino)methyl)bicyclo[2.2.1]heptan-1-yl)-5-(quinolin-3-yl)-7H-pyrrolo[2,3-d]pyrimidine-4-amine] | 6.3 | 1.5 | < 0.3 | 2.8 |  |  |  | 
9 | C#Cc1c(-c2cnc3ccccc3c2)c2c(N)ncnc2n1C12CCC(NC(=O)CN(C)C)(CC1)CC2 [Example 55] | 1.2 | 0.86 | < 0.3 | 1.2 |  |  |  | 
10 | C#Cc1c(-c2cnc3ccccc3c2)c2c(N)ncnc2n1C12CCC(NC(=S)N3CC4(CN(C)C4)C3)(CC1)CC2 [Example 56] | 0.94 | 0.84 | < 0.3 | 0.9 |  |  |  | 
11 | C#Cc1c(-c2cnc3ccccc3c2)c2c(N)ncnc2n1C12CCC(N(C)C(=O)c3cnc(C)cn3)(CC1)C2 [Example 57] | 5.9 | 2.5 | < 0.3 | 4.4 |  |  |  | 
12 | C#Cc1c(-c2cnc3ccccc3c2)c2c(N)ncnc2n1C12CCC(NC(=O)[C@@H]3CNCCO3)(CC1)C2 [Example 62, (S)-N-(4-(4-Amino-6-ethynyl-5-(quinolin-3-yl)-7H-pyrrolo[2,3-d]pyrimidin-7-yl) -bicyclo[2.2.1]heptan-1-yl)morpholine-2-carboxamide] |  |  |  |  | 1.6 | 0.34 | < 0.3 | < 0.3

Source: US11786534B2 (TAIHO PHARMACEUTICAL CO., LTD., priority 2019, dated 2023)
